Measurements taken from patent US9994578B2, “Benzodiazepine derivative and use thereof” (JIANGSU NHWALUOKANG PHARMCEUTICAL RESEARCH AND DEVELOPMENT …, priority 2014, dated 2018).
Converted amounts (≈) assume the structure as drawn. Marks after values point to notes of the source that are not given here.

Tests used:
[1] = Solubility in normal saline; format: physicochemical; details: saline or isotonic
Protocol: The structures of the compounds C1-C5 and their solubilities in normal saline are as follows:
Furthermore, other derivatives were also prepared. The structures and solubilities in normal saline are as follows: […]

[2] = tested on: Kunming mice; assay: Anesthetic efficacy on mice (disappearance of righting reflex); format: in vivo; details: for Number of anesthetized animals / Behavior of animals: 9 mg/kg caudal vein injection, 0.9 mg/ml; for Number of anesthetized animals: 6 per group, disappearance of righting reflex
Protocol: Kunming mice (SPF, Chongqing Medical University Animal Center) were randomly grouped with 6 animals in each group. The dosage as 9 mg/kg was administered via caudal vein injection for 3-5 seconds. The performances during animal experiments were recorded with the standard of disappearance of righting reflex.

[3] = Oil/water partition coefficient (n-octanol/water); format: physicochemical; details: 1 mg/ml aqueous solution, room temperature
Protocol: Remirnazolam and compound C2 were formulated into aqueous solution of 1 mg/ml respectively, 10 ml of prepared solution were measured and n-octanol with equal volume was added.

[4] = Rat plasma decomposition in vitro; format: in vitro ADME; details: 37° C.
Protocol: Remimazolam and compound C2 were formulated in normal saline of respectively. 0.1 ml of the solution was measured and added into plasma of rat (living Kunming species, SPF, Animal center of Chongqing Medical University). Mixing was performed sufficiently, and the mixture was placed in constant temperature water bath of 37° C. 2 ml of acetonitrile was added immediately after taking samples at different time-points. Shaking and centrifugation at 1000 rpm/min were conducted to obtain supernatant and HPLC measurement was performed.

[5] = Anesthetic ED50, LD50 and TI index of rats (sequential method); format: in vivo; details: rat, in vivo, intravenous; male SD rats, caudal vein injection in 10 seconds, death
Protocol: (§1) Anesthetic ED50 (median effective dose) value and LD50 (half lethal dose) value of rats are determined by sequential method. Healthy male SD rats (SPF, Qinglongshan animal breeding center of Nanjing), n-10˜20, were administrated via caudal vein injection and injection was completed in 10 seconds at a constant speed. The rough dosage that cause anesthesia (or death) of animal was found by preliminary test before experiment and used as middle dosage for the formal experiment. The spacing of each group was set as 0.8, and 2-3 dose-groups were set up and down, respectively. During the formal experiment, administration began from the group of middle dosage. When the animal was anaesthetized (or dead), administration was reduced by a dose unit; if the animal was not anaesthetized (or death), administration was increased by a dose unit until 3-4 reversal were found. The disappearance of righting reflex or death was used as judgment index, respectively. The ot425 software was used to calculate LD50 and ED50. Treatment index (TI index) was calculated by LD50 and ED50 value=LD50/ED50.

[6] = tested on: SD rats; assay: as above; format: in vivo; details: for ED50: Rattus norvegicus, male SD rats, caudal vein injection in 10 seconds, disappearance of righting reflex; for TI index: rats, LD50/ED50
Protocol: as §1

[7] = tested on: Kunming rats; assay: Anesthetic induction time and waking up time of rats via intravenous bolus; format: in vivo; details: for Number of anesthetic animals: 2*ED50 caudal vein injection in 10 seconds, 10 per group; for Induction time: 2*ED50 i.v. bolus, time to disappearance of righting reflex
Protocol: (§2) Kunming rats (SPF, Qinglongshan animal breeding center of Nanjing), half male and half female, were divided into groups with 10 animals in each group. The dosage of administration was 2*ED50 (ED50 value was detected in Example 12) and caudal vein injection was done at a constant speed in 10 seconds. The time for the disappearance of right reflex (latent period) and recovery time (duration period) of rats were recorded.

[8] = tested on: rats; assay: as above; format: in vivo; details: 2*ED50 i.v. bolus, recovery time
Protocol: as §2

[9] = tested on: New Zealand white rabbits; assay: Rabbits anesthetic ED50 (sequential method); format: in vivo; details: Oryctolagus cuniculus, ear vein injection in 30 seconds, disappearance of righting reflex
Protocol: Anesthetic ED50 values of rabbits are determined by sequential method. Healthy New Zealand white rabbits (SPF, Peizhou rabbit breeding center) were administrated via ear vein injection at a constant speed in 30 seconds. The rough dosage that cause anesthesia (or death) of animal were found by preliminary test before experiment and used as middle dosage for the formal experiment. The spacing of each group was set as 0.8 and 2-3 dose-groups were set up and down, respectively. The disappearance of righting reflex or death was used as judgment index of efficacy or toxicity, respectively. During the formal experiment, administration began from the group of middle dosage. When the animal was anesthetized (or dead), administration was reduced by a dose unit; if the animal was not anesthetized (or dead), administration was increased by a dose unit, until 3-4 reversal occurred. The disappearance of righting reflex or death was used as judgment index, respectively. The ot425 software was used to calculate ED50.

[10] = tested on: New Zealand white rabbits; assay: Anesthetic induction time and waking up time of rabbits via intravenous bolus; format: in vivo; details: for Number of anesthetic animals: 1.0 mg/kg (2*ED50) ear vein injection in 30 seconds, 8 per group; for Duration / Induction time: 1.0 mg/kg (2*ED50) i.v. bolus
Protocol: New Zealand white rabbits (SPF, Peizhou rabbit breeding center), half male and half female, were divided into groups with 8 animals in each group. The dosage of administration was 2*ED50 (ED50 value was detected in Example 14), and was administrated via ear vein injection at a constant speed in 30 seconds. The time (latent period) for the disappearance of right reflex and recovery time (duration period) of rabbits were recorded.

[11] = tested on: New Zealand white rabbits; assay: Long-term venous infusion experiment on rabbits; format: in vivo; details: inducing dose 1.5 mg/kg (3*ED50), maintaining dose 22.5 mg/kg/h
Protocol: New Zealand white rabbits (SPF, Peizhou rabbit breeding center), half male and half female, were divided into groups with 10 animals in each group. The dosage of each administration was 3*ED50 (ED50 value was detected in Example 14) as inducing dosage when intravenous injection was performed on rabbits. An appropriate dosage was infused as maintaining dosage for 30 min. […] The effects of long-term infusion of medicine of the two groups on rabbits (breathe, salivation, excrement) were observed and the time from ceasing administration to the recovery of righting reflex of rabbits were recorded.

[12] = tested on: Macaca fascicularis; assay: Anesthetic pharmacodynamic experiment on Macaca fascicularis; format: in vivo; details: for Number of anesthetic animal/number of animal: disappearance of eyelid response
Protocol: Compound C2 showing significant efficacy on other animal, was administrated to Macaca fascicularis for anesthetic pharmacodynamic experiment. The rough anesthetic dosage of compound C2 for Macaca fascicularis was investigated by preliminary test before experiment and different dosages were set for the formal experiment. Intravenous administration was performed in 60±10s. The disappearance of eyelid response of animal was used to judge whether anesthesia occurred on the animal. The behaviors of animals were observed during duration period and the anesthetic effects of compound C2 on Macaca fascicularis were evaluated.

[13] = tested on: GABAA receptor benzodiazepines site; assay: In vitro affinity with GABAA receptor benzodiazepines site (3H-flunitrazepam displacement, brain membrane); format: binding, SD rat
[14] = Hepatocyte metabolism experiment of CNS 7056 in vitro with formic acid; format: in vitro ADME; details: formic acid added in liver cell nutrient solution at 0.1% (v/v)
Text: Therefore, after a long-term administration of remimazolam during ICU sedation process by ONO PHARMACEUTICAL CO., LTD, the metabolite methanol is easily oxidized to formic acid. Formic acid easily accumulates in vivo and inhibits hCES1 such that remimazolam is metabolized slowly, which may cause high serum concentration in some patients.

[15] = tested on: ICU patients; details: of 49 ICU patients, sedation; cited from earlier work

CCOC(=O)CC[C@@H]1N=C(c2ccccn2)c2cc(Br)ccc2-n2c(C)cnc21 [C2, remimazolam acid ethyl ester p-toluenesulfonate]
solubility [1]: 15 mg/mL (≈ 33.1 mM) | Number of anesthetized animals [2]: 6/6 | logP at 24 h [3]: 3.28 | Rat Plasma decomposition in vitro (%) ([4]; 10 s): 61.4% | Rat Plasma decomposition in vitro (%) ([4]; 30 s): 99.0% | Rat Plasma decomposition in vitro (%) ([4]; 1 min): 100% | LD50 [5]: 30.7 mg/kg | ED50 [6]: 3.2 mg/kg | TI index [6]: 9.6 | Number of anesthetic animals [7]: 10/10 | Induction time [7]: 18.8 ± 3.0 s | Duration [8]: 267.4 ± 105 s | ED50 [9]: 0.512 mg/kg | Number of anesthetic animals [10]: 8/8 | Duration [10]: 13.19 ± 3.52 min | Induction time [10]: 1.80 ± 0.78 min | Waking up time after intravenous drip for 30 min [11]: 45.20 ± 12.59 min | Duration ([12]; 3 mg/kg i.v.): 28.67 ± 5.92 min | Induction time ([12]; 3 mg/kg i.v.): 2.00 ± 0.63 s | Number of anesthetic animal/number of animal ([12]; 3 mg/kg i.v.): 3/3 | Duration ([12]; 4 mg/kg i.v.): 31.67 ± 6.86 min | Induction time ([12]; 4 mg/kg i.v.): 1.74 ± 0.43 s | Number of anesthetic animal/number of animal ([12]; 4 mg/kg i.v.): 3/3 | Duration ([12]; 5 mg/kg i.v.): 36.21 ± 4.78 min | Induction time ([12]; 5 mg/kg i.v.): 1.48 ± 0.54 s | Number of anesthetic animal/number of animal ([12]; 5 mg/kg i.v.): 3/3

Cc1ccc(S(=O)(=O)O)cc1.Cc1cnc2n1-c1ccc(Br)cc1C(c1ccccn1)=N[C@H]2CCC(=O)OC(C)C [C6, remimazolam acid isopropyl ester p-toluenesulfonate]
solubility [1]: 8 mg/mL | Number of anesthetized animals [2]: 6/6 | anesthetic effect on the mice ([2]; 9 mg/kg i.v.): has anesthetic effect on the mice | toxicity in mice ([2]; 9 mg/kg i.v.): shows some toxicity

Cc1ccc(S(=O)(=O)O)cc1.Cc1cnc2n1-c1ccc(Br)cc1C(c1ccccn1)=N[C@H]2CCC(=O)OC1CCCCC1 [C9, remimazolam acid cyclohexyl ester p-toluenesulfonate]
solubility [1]: 5 mg/mL | Behavior of animals [2]: Non-effect | Number of anesthetized animals [2]: 0/6

Cc1ccc(S(=O)(=O)O)cc1.Cc1cnc2n1-c1ccc(Br)cc1C(c1ccccn1)=N[C@H]2CCC(=O)OCCC(C)C [C8, remimazolam acid isopentyl ester p-toluenesulfonate]
solubility [1]: 6 mg/mL | Behavior of animals [2]: Non-effect | Number of anesthetized animals [2]: 0/6

CCOC(=O)CC[C@@H]1N=C(c2ccccn2)c2cc(Br)ccc2-n2c(C)cnc21.CCS(=O)(=O)O [C5, remimazolam acid ethyl ester ethanesulfonate]
solubility [1]: 16 mg/mL

COC(=O)CC[C@@H]1N=C(c2ccccn2)c2cc(Br)ccc2-n2c(C)cnc21 [remimazolam, reference compound]
Number of anesthetized animals [2]: 6/6 | Inhibitory rate % ([13]; 1.0 × 10^−5M test compound, 1 nM 3H-flunitrazepam): 99.7* % | Inhibitory rate % ([13]; 1.0 × 10^−6M): 85.5% | Inhibitory rate % ([13]; 1.0 × 10^−7M): 47.0% | Inhibitory rate % ([13]; 1.0 × 10^−8M): 15.4% | Inhibitory rate % ([13]; 1.0 × 10^−9M): 6.8% | Inhibitory rate % ([13]; 1.0 × 10^−10M): 23.0% | IC50 ([13]; calculated by logit method): 15.8 nM | logP at 24 h [3]: 2.62 | Rat Plasma decomposition in vitro (%) ([4]; 10 s): 53.7% | Rat Plasma decomposition in vitro (%) ([4]; 30 s): 96.7% | Rat Plasma decomposition in vitro (%) ([4]; 1 min): 100% | LD50 [5]: 61.4 mg/kg | ED50 [6]: 5 mg/kg | TI index [6]: 12.3 | Number of anesthetic animals [7]: 10/10 | Induction time [7]: 52.1 ± 4.7 s | Duration [8]: 242.2 ± 68 s | ED50 [9]: 0.512 mg/kg | Number of anesthetic animals [10]: 8/8 | Duration [10]: 10.25 ± 2.72 min | Induction time [10]: 4.30 ± 2.38 min | Waking up time after intravenous drip for 30 min [11]: 33.91 ± 10.28 min | Duration ([12]; 3 mg/kg i.v.): 23.33 ± 6.71 min | Induction time ([12]; 3 mg/kg i.v.): 2.17 ± 0.41 s | Number of anesthetic animal/number of animal ([12]; 3 mg/kg i.v.): 3/3 | metabolism of CNS 7056 in hepatocytes [14]: totally inhibited | patients with higher serum concentration of remimazolam [15]: Five | patients with prolonged waking up time [15]: five

CCCOC(=O)CC[C@@H]1N=C(c2ccccn2)c2cc(Br)ccc2-n2c(C)cnc21.Cc1ccc(S(=O)(=O)O)cc1 [C7, remimazolam acid n-propyl ester p-toluenesulfonate]
solubility [1]: 8 mg/mL | Number of anesthetized animals [2]: 0/6

CCOC(=O)CC[C@@H]1N=C(c2ccccn2)c2cc(Br)ccc2-n2c(C)cnc21.O=S(=O)(O)c1ccccc1 [C3, remimazolam acid ethyl ester benzenesulfonate]
solubility [1]: 15 mg/mL

CCOC(=O)CC[C@@H]1N=C(c2ccccn2)c2cc(Br)ccc2-n2c(C)cnc21.CS(=O)(=O)O [C4, remimazolam acid ethyl ester methanesulfonate]
solubility [1]: 16 mg/mL
